As usually defined, the EC50 is the midpoint of the concentration-response curve.

Here are results for 19 compounds from patent publication US10844049B2, “GLP-1R agonists and uses thereof” (QILU REGOR THERAPEUTICS INC., priority 2018, dated 2020).

The target in this assay is GLP1R (Homo sapiens, UniProt P43220). Kind of assay: GLP1R cAMP HTRF assay, HEK293/GLP-1R/CRE/Luc (HEK293T cells). It counts as cell-based. The settings on record: read-out: EC50. The method, then: GLP-1R-mediated agonist activity was determined with a cell-based functional assay utilizing an HTRF (Homogeneous Time-Resolved Fluorescence) cAMP detection kit (cAMP Dynamic 2 Assay Kit; CisBio cat #62AM4PEC) that measures cAMP levels in the cell. The method is a competitive immunoassay between native cAMP produced by the cells and exogenous cAMP labeled with the dye d2. The tracer binding is visualized by a mAb anti-cAMP labeled with Cryptate. The specific signal (i.e., energy transfer) is inversely proportional to the concentration of cAMP in either standard or experimental sample.
GLP1R, sequence (P43220 24-463): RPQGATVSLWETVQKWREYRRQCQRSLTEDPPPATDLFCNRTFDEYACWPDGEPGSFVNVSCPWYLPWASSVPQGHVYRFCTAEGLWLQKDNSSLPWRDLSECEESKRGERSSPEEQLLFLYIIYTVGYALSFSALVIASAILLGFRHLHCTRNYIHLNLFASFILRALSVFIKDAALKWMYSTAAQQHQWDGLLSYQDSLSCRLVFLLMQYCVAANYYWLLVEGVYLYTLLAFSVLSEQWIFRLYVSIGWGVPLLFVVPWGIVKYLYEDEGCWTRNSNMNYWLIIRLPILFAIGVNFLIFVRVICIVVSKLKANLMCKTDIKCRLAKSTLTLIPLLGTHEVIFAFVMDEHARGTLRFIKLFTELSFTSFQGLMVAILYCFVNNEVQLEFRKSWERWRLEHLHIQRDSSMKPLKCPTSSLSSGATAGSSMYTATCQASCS
A cell line stably expressing the receptor was isolated.
Varying concentrations of each compound to be tested (in DMSO) were diluted in DMSO to obtain 200× compound working solution first and then 50 nl compounds were added to a white 384-well assay plate (Greiner 784075) with ECHO. The final DMSO concentration was 0.5%. The compound concentration range may be adjusted at any time.
Cells were removed from cryopreservation, re-suspended in 5 mL of Dulbecco's Phosphate Buffered Saline (DPBS-Sigma Cat # D8537) and centrifuged at 900 g for 5 min at 22° C. The cell pellet was then re-suspended in 1 mL of assay buffer [DPBS with 500 μM IBMX (Sigma #15879) and 0.1% BSA (Sigma # A1933). IBMX and BSA were freshly added on the day of assay]. A 10 μL sample of the cell suspension was counted on an Invitrogen Countess II to determine cell viability and cell count per mL. The remaining cell suspension was then adjusted with assay buffer to deliver 1000 viable cells per well using a Matrix Combi Multidrop reagent dispenser. 10 μL cell suspensions were added to each well of the assay plate which already contains compound. The plate was sealed and incubated at 37° C. with 5% CO2 for 30 minutes.
Following the 30 minute incubation, 5 μL of labeled d2 cAMP and 5 μL of anti-cAMP antibody (both diluted 1:20 in cell lysis buffer; as described in the manufacturer's assay protocol) were added to each well of the assay plate. The plates w ere then incubated at room temperature and after 60 minutes, changes in the HTRF signal were read with an Envision multi-label plate reader using excitation of 330 nm and emissions of 615 and 665 nm. Raw data were converted to nM cAMP by interpolation from a cAMP standard curve (as described in the manufacturer's assay protocol) and the percent effect was determined relative to a saturating concentration of the full agonist GLP-17-37 (10 nM) included on each plate. EC50 determinations were made from agonist dose-response curves analyzed with a curve fitting program using a 4-parameter logistic dose response equation.
3) Anti-cAMP antibody-cryptate working solution preparation • c) The lyophilisate was reconstituted with appropriate amount of distilled water according to manufacturer's instruction to make working stock which can be aliquoted and frozen (−20° C.). • d) The working stock solution was diluted 1:20 in the conjugate and lysis buffer before use. Procedures Procedures for Cell Suspension Preparation • 1. Frozen cells were thawed very briefly in a 37° C. water bath under sterile conditions until just before ice completely melt (for about 1 minute) with a continuous agitation. Caution was taken because a longer incubation could result in cell death. • 2. DMSO was removed from the media by carefully transferring thawed cells to a sterile 15/50 mL tube, filling a tube with 10-50 mL of complete media pre-warmed to 37° C., and allowing the cells to sit 5 min before centrifuging at 900 rpm for 5 minutes for cell collection. • 3. The cells were resuspended with assay buffer. • 4. For stable GLP1-R assay, the optimized cell density is 1000 cells/well. Caution was taken because cell density optimization was crucial and needed to be optimized in different laboratories. The level of cAMP produced by the cells must fall within the linear range of the standard curve.
A general note: TR-FRET usually uses a lanthanide donor and a delayed reading to cut background.
On to `O=C(O)c1ccc2nc(CN3CC=C(c4cncc(OCc5ccc(Cl)cc5F)c4)CC3)n(C[C@@H]3CCO3)c2c1` [Compound 32, (S)-2-((5-((4-chloro-2-fluorobenzyl)oxy)-3′,6′-dihydro-[3H′-bipyridin]-1′(2′H)-yl)methyl)-1-(oxetan-2-ylmethyl)-1 h-benzo[d]imidazole-6-carboxylic acid], for which the EC50 is at most 1 µM.

For `O=C(O)c1ccc2nc(CN3CC=C(c4nccc(OCc5ccc(Cl)cc5F)n4)CC3)n(C[C@@H]3CCO3)c2c1` [Compound 33, (S)-2-((4-(4-(4-chloro-2-fluorobenzyloxy)pyrimidin-2-yl)-5,6-dihydropyridin-1(2H)-yl)methyl)-1-(oxetan-2-ylmethyl)-1 h-benzo[d]imidazole-6-carboxylic acid], the EC50 was at most 0.015 µM. The figure for `O=C(O)c1ccc2nc(CN3CCN(c4cc5ccccc5c(OCc5ccc(Cl)cc5F)n4)CC3)n(C[C@@H]3CCO3)c2c1` [Compound 36, (S)-2-((4-(1-((4-chloro-2-fluorobenzyl)oxy)isoquinolin-3-yl)piperazin-1-yl)methyl)-1-(oxetan-2-ylmethyl)-1 h-benzo[d]imidazole-6-carboxylic acid] is at most 1 µM.

Regarding `O=C(O)c1ccc2nc(CN3CC=C(c4ccc5c(n4)N(CCc4cccc(Cl)c4)CCO5)CC3)n(C[C@@H]3CCO3)c2c1` [Compound 37, (S)-2-((4-(4-(3-chlorophenethyl)-3,4-dihydro-2 h-pyrido[3,2-b][1,4]oxazin-6-yl)-5,6-dihydropyridin-1(2H)-yl)methyl)-1-(oxetan-2-ylmethyl)-1 h-benzo[d]imidazole-6-carboxylic acid], the EC50 was over 1 µM. For `O=C(O)c1ccc2nc(CN3CC=C(c4ccc5c(n4)N(Cc4ccc(Cl)cc4F)C(=O)CO5)CC3)n(C[C@@H]3CCO3)c2c1` [Compound 38, (S)-2-((4-(4-(4-chloro-2-fluorobenzyl)-3-oxo-3,4-dihydro-2 h-pyrido[3,2-b][1,4]oxazin-6-yl)-5,6-dihydropyridin-1(2H)-yl)methyl)-1-(oxetan-2-ylmethyl)-1 h-benzo[d]imidazole-6-carboxylic add] the value was at most 1 µM; for `O=C(O)c1ccc2nc(CN3CC=C(c4cccc(N5CCc6cc(Cl)ccc6C5)n4)CC3)n(C[C@@H]3CCO3)c2c1` [Compound 39, (S)-2-((6-(6-chloro-3,4-dihydroisoquinolin-2(1H)-yl)-3′,6′-dihydro-[2,4′-bipyridin]-1′(2′H)-yl)methyl)-1-(oxetan-2-ylmethyl)-1 h-benzo[d]imidazole-6-carboxylic add], at most 0.15 µM; for `O=C(O)c1ccc2nc(CN3CC=C(c4cccc(OCc5ccc(Cl)cc5F)c4F)CC3)n(C[C@@H]3CCO3)c2c1` [Compound 40, (S)-2-((4-(3-(4-chloro-2-fluorobenzyloxy)-2-fluorophenyl)-5,6-dihydropyridin-1(2H)-yl)methyl)-1-(oxetan-2-ylmethyl)-1 h-benzo[d]imidazole-6-carboxylic add], at most 1 µM. The figure for `O=C(O)c1ccc2nc(CN3CC=C(c4cc(F)c(F)c(OCc5ccc(Cl)cc5F)c4)CC3)n(C[C@@H]3CCO3)c2c1` [Compound 41, (S)-2-((4-(3-(4-chloro-2-fluorobenzyloxy)-4,5-difluorophenyl)-5,6-dihydropyridin-1(2H)-yl)methyl)-1-(oxetan-2-ylmethyl)-1 h-benzo[d]imidazole-6-carboxylic acid] is at most 0.015 µM; for `O=C(O)c1ccc2nc(CN3CC=C(c4cc(F)cc(OCc5ccc(Cl)cc5F)c4)CC3)n(C[C@@H]3CCO3)c2c1` [Compound 42, (S)-2-((4-(3-((4-chloro-2-fluorobenzyl)oxy)-5-fluorophenyl)-3,6-dihydropyridin-1(2H)-yl)methyl)-1-(oxetan-2-ylmethyl)-1 h-benzo[d]imidazole-6-carboxylic acid] it is at most 0.015 µM; for `O=C(O)c1ccc2nc(CN3CC=C(c4cc(OCc5ccc(Cl)cc5F)ccc4F)CC3)n(C[C@@H]3CCO3)c2c1` [Compound 43, (S)-2-((4-(5-((4-chloro-2-fluorobenzyl)oxy)-2-fluorophenyl)-3,6-dihydropyridin-1(2H)-yl)methyl)-1-(oxetan-2-ylmethyl)-1H-benzo[d]imidazole-6-carboxylic add] it is at most 0.015 µM. The figure for `O=C(O)c1ccc2nc(CN3CC=C(c4cccc(OCc5ccc(Cl)cc5)n4)CC3)n(C[C@@H]3CCO3)c2c1` [Compound 44, (S)-2-((6-((4-chlorobenzyl)oxy)-3′,6′-dihydro-[2,4′-bipyridin]-1′(2′H)-yl)methyl)-1-(oxetan-2-ylmethyl)-1H-benzo[d]imidazole-6-carboxylic acid] is at most 0.015 µM; for `O=C(O)c1ccc2nc(CN3CC=C(c4cc5cc[nH]c5c(OCc5ccc(Cl)cc5F)n4)CC3)n(C[C@@H]3CCO3)c2c1` [Compound 48, (S)-2-((4-(7-((4-chloro-2-fluorobenzyl)oxy)-1 h-pyrrolo[2,3-c]pyridin-5-yl)-3,6-dihydropyridin-1(2H)-yl)methyl)-1-(oxetan-2-ylmethyl)-1 h-benzo[d]imidazole-6-carboxylic acid] it is at most 0.15 µM. Regarding `O=C(O)c1ccc2cc(CN3CCN(c4cccc(OCc5ccc(Cl)cc5F)n4)CC3)n(C[C@@H]3CCO3)c2c1` [Compound 49, (S)-2-((4-(6-(4-chloro-2-fluorobenzyloxy)pyridin-2-yl)piperazin-1-yl)methyl)-1-(oxetan-2-ylmethyl)-1 h-indole-6-carboxylic acid], the EC50 was over 1 µM. For `Cn1c(CN2CCN(c3cccc(OCc4ccc(Cl)cc4F)n3)CC2)cc2ccc(C(=O)O)cc21` [Compound 50, 2-((4-(6-(4-chloro-2-fluorobenzyloxy)pyridin-2-yl)piperazin-1-yl)methyl)-1-methyl-1 h-indole-6-carboxylic add] the value was over 1 µM; for `O=C(O)c1ccc2nc(CN3CC=C(n4cccc(OCc5ccc(Cl)cc5F)c4=O)CC3)n(C[C@@H]3CCO3)c2c1` [Compound 51, (S)-2-((4-(3-(4-chloro-2-fluorobenzyloxy)-2-oxopyridin-1(2H)-yl)-5,6-dihydropyridin-1(2H)-yl)methyl)-1-(oxetan-2-ylmethyl)-1 h-benzo[d]imidazole-6-carboxylic acid], over 1 µM; for `O=C(O)c1ccc2nc(CN3CCC(n4c(=O)n(CCc5ccc(Cl)cc5F)c5ccccc54)CC3)n(C[C@@H]3CCO3)c2c1` [Compound 52, (S)-2-((4-(3-(4-chloro-2-fluorophenethyl)-2-oxo-2,3-dihydro-1 h-benzo[d]imidazol-1-yl)piperidin-1-yl)methyl)-1-(oxetan-2-ylmethyl)-1 h-benzo[d]imidazole-6-carboxylic acid], over 1 µM. The figure for `O=C(O)c1ccc2nc(CN3CCC(N4Cc5ccccc5N(CCc5ccc(Cl)cc5F)C4=O)CC3)n(C[C@@H]3CCO3)c2c1` [Compound 53, (S)-2-((4-(1-(4-chloro-2-fluorophenethyl)-2-oxo-1,4-dihydroquinazolin-3(2H)-yl)piperidin-1-yl)methyl)-1-(oxetan-2-ylmethyl)-1H-benzo[d]imidazole-6-carboxylic acid] is over 1 µM. For `O=C(O)c1ccc2nc(CN3CCC(N4CCc5ccc(-c6ccc(Cl)cc6F)cc5C4=O)CC3)n(C[C@@H]3CCO3)c2c1` [Compound 54, (S)-2-((4-(7-(4-chloro-2-fluorophenyl)-1-oxo-3,4-dihydroisoquinolin-2(1H)-yl)piperidin-1-yl)methyl)-1-(oxetan-2-ylmethyl)-1 h-benzo[d]imidazole-6-carboxylic acid] the value was over 1 µM.

Turning to `O=C(O)c1ccc2nc(CN3CCN(c4cccc(OCc5ccc(Cl)cc5F)n4)C(=O)C3)n(C[C@@H]3CCO3)c2c1` [Compound 55, (S)-2-((4-(6-((4-chloro-2-fluorobenzyl)oxy)pyridin-2-yl)-3-oxopiperazin-1-yl)methyl)-1-(oxetan-2-ylmethyl)-1H-benzo[d]imidazole-6-carboxylic acid], the EC50 is at most 0.015 µM.
